Measured values reported in PubChem BioAssay AID1963858 (Molecular Pharmacology Branch, DTP, NCI, 2024).

Tested on: HOP-62 multicell spheroids with HUVEC/MSC, viability
Assay: Anticancer human tumor HOP-62 cell line growth inhibition [KRAS2];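 also: viability read after a week of compound exposure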;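 as to viability, T/C: 100% = DMSO vehicle-treated spheroids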
Details: for IC50: curve of first compound; for viability, T/C: stronger effect = lower value
Summary of the method: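 Combination screen of spheroid viability in tumor-cell co-cultures with endothelial (HUVEC) and mesenchymal stem cell stroma. Each agent was tested in half-log dilutions, topping at clinical Cmax or at 10 microM without a known Cmax.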

[1] = second compound 0.1 µM, first compound 0.0316 µM
[2] = second compound 0.1 µM, first compound 0.1 µM
[3] = second compound 0.1 µM, first compound 0.316 µM
[4] = second compound 0.1 µM, first compound 1 µM
[5] = second compound 0.1 µM, first compound 3.16 µM
[6] = second compound 0.1 µM, first compound 10 µM
[7] = second compound 0.316 µM, first compound 0.0316 µM
[8] = second compound 0.316 µM, first compound 0.1 µM
[9] = second compound 0.316 µM, first compound 0.316 µM
[10] = second compound 0.316 µM, first compound 1 µM
[11] = second compound 0.316 µM, first compound 3.16 µM
[12] = second compound 0.316 µM, first compound 10 µM
[13] = second compound 1 µM, first compound 0.0316 µM
[14] = second compound 1 µM, first compound 0.1 µM
[15] = second compound 1 µM, first compound 0.316 µM
[16] = second compound 1 µM, first compound 1 µM
[17] = second compound 1 µM, first compound 3.16 µM
[18] = second compound 1 µM, first compound 10 µM
[19] = second compound 3.16 µM, first compound 0.0316 µM
[20] = second compound 3.16 µM, first compound 0.1 µM
[21] = second compound 3.16 µM, first compound 0.316 µM
[22] = second compound 3.16 µM, first compound 1 µM
[23] = second compound 3.16 µM, first compound 3.16 µM
[24] = second compound 3.16 µM, first compound 10 µM
[25] = second compound 10 µM, first compound 0.0316 µM
[26] = second compound 10 µM, first compound 0.1 µM
[27] = second compound 10 µM, first compound 0.316 µM
[28] = second compound 10 µM, first compound 1 µM
[29] = second compound 10 µM, first compound 3.16 µM
[30] = second compound 0.1 µM, first compound 0.01 µM
[31] = second compound 0.316 µM, first compound 0.01 µM
[32] = second compound 1 µM, first compound 0.01 µM
[33] = second compound 3.16 µM, first compound 0.01 µM
[34] = second compound 10 µM, first compound 0.01 µM

For CC1(C)CCC(CN2CCN(c3ccc(C(=O)NS(=O)(=O)c4ccc(NCC5CCOCC5)c([N+](=O)[O-])c4)c(Oc4cnc5[nH]ccc5c4)c3)CC2)=C(c2ccc(Cl)cc2)C1 + C=CC(=O)N1CCN(c2nc(OCC3CCCN3C)nc3c2CCN(c2cccc4cccc(C)c24)C3)CC1CC#N, the IC50 (second compound 0.0316 µM) was 1510 nM, the IC50 (second compound 0.1 µM) was less than 31.6 nM and the IC50 (second compound 0.316 µM) was less than 31.6 nM. For the same molecule, the IC50 (second compound 1 µM) was less than 31.6 nM, the IC50 (second compound 3.16 µM) was less than 31.6 nM and the viability, T/C (second compound 0.0316 µM, first compound 0.0316 µM) was 58.8%. It also gave a viability, T/C (second compound 0.0316 µM, first compound 0.1 µM) of 54.1%, a viability, T/C (second compound 0.0316 µM, first compound 0.316 µM) of 54.9% and a viability, T/C (second compound 0.0316 µM, first compound 1 µM) of 56%. For the same molecule, the viability, T/C (second compound 0.0316 µM, first compound 3.16 µM) was 39.5%, the viability, T/C (second compound 0.0316 µM, first compound 10 µM) was 22.7% and the viability, T/C [1] was 48.9%. For the same molecule, the viability, T/C [2] was 41.4%, the viability, T/C [3] was 37.8% and the viability, T/C [4] was 36.4%. It also gave a viability, T/C [5] of 37.2%, a viability, T/C [6] of 21.6% and a viability, T/C [7] of 36.6%. For the same molecule, the viability, T/C [8] was 41.6%, the viability, T/C [9] was 26.4% and the viability, T/C [10] was 38.2%. For the same molecule, the viability, T/C [11] was 26.9%, the viability, T/C [12] was 16% and the viability, T/C [13] was 24.6%. The viability, T/C [14] was 22.6%, the viability, T/C [15] was 27.1% and the viability, T/C [16] was 22.9%. It also gave a viability, T/C [17] of 24.1%, a viability, T/C [18] of 5.4% and a viability, T/C [19] of 1.22%. It also gave a viability, T/C [20] of 0.15%, a viability, T/C [21] of 0.14% and a viability, T/C [22] of 0.16%. For the same molecule, the viability, T/C [23] was 0.14% and the viability, T/C [24] was 0.18%.

For COc1cc(Nc2ncc3c(n2)-c2ccc(Cl)cc2C(c2c(F)cccc2OC)=NC3)ccc1C(=O)O + C=CC(=O)N1CCN(c2nc(=O)n(-c3c(C)ccnc3C(C)C)c3nc(-c4c(O)cccc4F)c(F)cc23)C(C)C1, the IC50 (second compound 0.1 µM) was less than 31.6 nM, the IC50 (second compound 0.316 µM) was less than 31.6 nM and the IC50 (second compound 1 µM) was less than 31.6 nM. For the same molecule, the IC50 (second compound 3.16 µM) was less than 31.6 nM, the IC50 (second compound 10 µM) was less than 31.6 nM and the viability, T/C [1] was 35.3%. It also gave a viability, T/C [2] of 29.2%, a viability, T/C [3] of 23.2% and a viability, T/C [4] of 23.4%. For the same molecule, the viability, T/C [5] was 23.3%, the viability, T/C [6] was 16.6% and the viability, T/C [7] was 42.6%. For the same molecule, the viability, T/C [8] was 31.5%, the viability, T/C [9] was 31.8% and the viability, T/C [10] was 32.6%. The viability, T/C [11] was 21.8%, the viability, T/C [12] was 20% and the viability, T/C [13] was 27.6%. It also gave a viability, T/C [14] of 38.6%, a viability, T/C [15] of 35.4% and a viability, T/C [16] of 31.6%. For the same molecule, the viability, T/C [17] was 27.7%, the viability, T/C [18] was 21.9% and the viability, T/C [19] was 37.6%. The viability, T/C [20] was 36.7%, the viability, T/C [21] was 34% and the viability, T/C [22] was 33.7%. The viability, T/C [23] was 28.7%, the viability, T/C [24] was 22% and the viability, T/C [25] was 39.2%. It also gave a viability, T/C [26] of 32.3%, a viability, T/C [27] of 31.9% and a viability, T/C [28] of 33%. It also gave a viability, T/C [29] of 33.4% and a viability, T/C (second compound 10 µM, first compound 10 µM) of 25.5%.

CC1COCCN1c1cc(-c2ccnn2C)c2ccnc(-c3ccn[nH]3)c2n1 (stereo not given) + COc1cc2nc(C)nc(NC(C)c3cc(N)cc(C(F)(F)F)c3)c2cc1OC1CCOC1 was tested, and the IC50 (second compound 0.1 µM) was less than 10 nM, the IC50 (second compound 0.316 µM) was 68.6 nM and the IC50 (second compound 1 µM) was 54.2 nM. It also gave an IC50 (second compound 3.16 µM) of 22.8 nM, an IC50 (second compound 10 µM) of 10.9 nM and a viability, T/C [30] of 8.83%. It also gave a viability, T/C [1] of 6.78%, a viability, T/C [2] of 7.26% and a viability, T/C [3] of 6.53%. It also gave a viability, T/C [4] of 8.4%, a viability, T/C [5] of 10.7% and a viability, T/C [31] of 125%. The viability, T/C [7] was 83.5%, the viability, T/C [8] was 33.9% and the viability, T/C [9] was 16.5%. The viability, T/C [10] was 13.4%, the viability, T/C [11] was 14.4% and the viability, T/C [32] was 120%. For the same molecule, the viability, T/C [13] was 65.8%, the viability, T/C [14] was 31.4% and the viability, T/C [15] was 19.6%. It also gave a viability, T/C [16] of 12.5%, a viability, T/C [17] of 11.2% and a viability, T/C [33] of 77.4%. For the same molecule, the viability, T/C [19] was 38.2%, the viability, T/C [20] was 22.9% and the viability, T/C [21] was 13.9%. It also gave a viability, T/C [22] of 9.69%, a viability, T/C [23] of 10.8% and a viability, T/C [34] of 52.1%. The viability, T/C [25] was 36%, the viability, T/C [26] was 27.4% and the viability, T/C [27] was 22.3%. For the same molecule, the viability, T/C [28] was 15.8% and the viability, T/C [29] was 12.9%.

Work on Cn1ncnc1[C@H]1c2n[nH]c(=O)c3cc(F)cc(c23)N[C@@H]1c1ccc(F)cc1 + COc1cc2nc(C)nc(NC(C)c3cc(N)cc(C(F)(F)F)c3)c2cc1OC1CCOC1 yielded an IC50 (second compound 0.1 µM) greater than 100 nM, an IC50 (second compound 0.316 µM) greater than 100 nM and an IC50 (second compound 1 µM) greater than 100 nM. It also gave an IC50 (second compound 3.16 µM) of 74.2 nM, an IC50 (second compound 10 µM) of 2.96 nM and a viability, T/C (second compound 0.1 µM, first compound 0.000316 µM) of 95.1%. The viability, T/C (second compound 0.1 µM, first compound 0.001 µM) was 102%, the viability, T/C (second compound 0.1 µM, first compound 0.00316 µM) was 94.3% and the viability, T/C [30] was 87%. The viability, T/C [1] was 97.6%, the viability, T/C [2] was 70.4% and the viability, T/C (second compound 0.316 µM, first compound 0.000316 µM) was 104%. It also gave a viability, T/C (second compound 0.316 µM, first compound 0.001 µM) of 91.7%, a viability, T/C (second compound 0.316 µM, first compound 0.00316 µM) of 86.8% and a viability, T/C [31] of 94.2%. For the same molecule, the viability, T/C [7] was 83.5%, the viability, T/C [8] was 78.8% and the viability, T/C (second compound 1 µM, first compound 0.000316 µM) was 96%. The viability, T/C (second compound 1 µM, first compound 0.001 µM) was 89.5%, the viability, T/C (second compound 1 µM, first compound 0.00316 µM) was 69.9% and the viability, T/C [32] was 66.6%. The viability, T/C [13] was 66%, the viability, T/C [14] was 57.1% and the viability, T/C (second compound 3.16 µM, first compound 0.000316 µM) was 75.7%. For the same molecule, the viability, T/C (second compound 3.16 µM, first compound 0.001 µM) was 85.6%, the viability, T/C (second compound 3.16 µM, first compound 0.00316 µM) was 72.8% and the viability, T/C [33] was 58.1%. The viability, T/C [19] was 48.5%, the viability, T/C [20] was 51% and the viability, T/C (second compound 10 µM, first compound 0.000316 µM) was 58.6%. For the same molecule, the viability, T/C (second compound 10 µM, first compound 0.001 µM) was 59%, the viability, T/C (second compound 10 µM, first compound 0.00316 µM) was 50.8% and the viability, T/C [34] was 40.8%. For the same molecule, the viability, T/C [25] was 42.8% and the viability, T/C [26] was 41.6%.
